# Legend:
# [1] = tested on: A549; test: Anticancer activity against human A549 cells harboring KRAS mutant assessed as inhibition of cell growth
# [2] = biological target: Epidermal growth factor receptor (Homo sapiens, UniProt P00533)
# Description: Binding affinity to wild type human EGFR partial length (R669 to V1011 residues) expressed in bacterial expression system assessed as dissociation constant by DiscoverX kinomescan assay
# [3] = biological target: T1, Epidermal growth factor receptor (Homo sapiens, UniProt P00533, L858R)
# Description: Binding affinity to human partial length EGFR (R669 to V1011 residues) L858R mutant expressed in bacterial expression system assessed as dissociation constant by DiscoverX kinomescan assay
# [4] = biological target: T1, Epidermal growth factor receptor; remark: listed apart in the source
# Description: Inhibition of EGFR L858R mutant phosphorylation (unknown origin) in the presence of ATP
# [5] = biological target: T2, Aurora kinase B/Inner centromere protein (Homo sapiens, UniProt Q96GD4)
# Description: Inhibition of AURKB/INCENP (unknown origin) in the presence of ATP at Km concentration
# [6] = biological target: T1, Epidermal growth factor receptor; remark: listed apart in the source
# Description: Inhibition of EGFR L858R mutant phosphorylation (unknown origin) preincubated for 60 mins in the presence of ATP
# [7] = biological target: T2, Aurora kinase B/Inner centromere protein; remark: listed apart in the source
# Description: Inhibition of AURKB/INCENP (unknown origin) preincubated for 60 mins in the presence of ATP at Km concentration
# [8] = biological target: T3, Aurora kinase B (Homo sapiens, UniProt Q96GD4)
# Description: Binding affinity to human partial length AURKB (D25 to A303 residues) expressed in mammalian system assessed as dissociation constant by DiscoverX kinomescan assay
# [9] = tested on: NCI-H1975; test: cells; conditions: Homo sapiens
# Description: Anticancer activity against TKI resistant human NCI-H1975 cells harboring EGFR L858R/T790M mutant assessed as inhibition of cell growth
# [10] = biological target: T3, Aurora kinase B; test: Inhibition of AURKB (unknown origin) by nanoBRET assay
# T2 sequence (Q96GD4 whole entry): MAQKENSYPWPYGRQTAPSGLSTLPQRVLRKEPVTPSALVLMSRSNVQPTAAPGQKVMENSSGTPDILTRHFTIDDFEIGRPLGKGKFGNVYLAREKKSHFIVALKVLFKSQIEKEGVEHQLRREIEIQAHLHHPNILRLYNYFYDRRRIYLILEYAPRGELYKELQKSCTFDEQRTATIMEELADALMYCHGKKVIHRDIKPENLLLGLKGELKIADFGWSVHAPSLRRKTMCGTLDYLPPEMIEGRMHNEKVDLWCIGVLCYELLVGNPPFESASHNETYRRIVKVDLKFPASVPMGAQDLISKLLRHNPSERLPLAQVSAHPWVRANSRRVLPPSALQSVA
# T2 sequence (Q9NQS7 whole entry, further chain): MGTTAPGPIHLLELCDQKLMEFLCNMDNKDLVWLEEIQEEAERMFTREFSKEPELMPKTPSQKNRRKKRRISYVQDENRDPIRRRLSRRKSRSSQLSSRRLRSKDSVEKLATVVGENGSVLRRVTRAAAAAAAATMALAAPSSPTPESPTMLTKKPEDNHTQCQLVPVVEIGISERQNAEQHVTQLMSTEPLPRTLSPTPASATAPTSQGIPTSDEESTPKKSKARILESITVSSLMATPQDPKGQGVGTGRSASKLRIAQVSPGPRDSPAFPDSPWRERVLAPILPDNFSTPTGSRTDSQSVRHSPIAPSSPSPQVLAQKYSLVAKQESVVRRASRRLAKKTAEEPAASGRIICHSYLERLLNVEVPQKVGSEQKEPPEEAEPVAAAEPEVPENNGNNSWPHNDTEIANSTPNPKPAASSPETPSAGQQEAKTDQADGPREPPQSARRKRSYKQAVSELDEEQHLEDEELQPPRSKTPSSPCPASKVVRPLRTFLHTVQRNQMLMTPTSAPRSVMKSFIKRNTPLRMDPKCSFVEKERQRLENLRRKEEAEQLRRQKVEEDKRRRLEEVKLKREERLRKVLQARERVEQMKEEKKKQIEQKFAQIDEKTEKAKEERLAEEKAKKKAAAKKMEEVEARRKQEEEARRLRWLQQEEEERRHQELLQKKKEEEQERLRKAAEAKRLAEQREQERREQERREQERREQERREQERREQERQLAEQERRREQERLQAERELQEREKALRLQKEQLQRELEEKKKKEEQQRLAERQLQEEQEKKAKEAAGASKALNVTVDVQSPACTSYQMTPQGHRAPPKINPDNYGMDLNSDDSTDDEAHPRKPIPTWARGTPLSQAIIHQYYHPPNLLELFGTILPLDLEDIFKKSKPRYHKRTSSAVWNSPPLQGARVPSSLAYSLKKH
# T1 sequence (P00533 25-1210 L858R limits assumed): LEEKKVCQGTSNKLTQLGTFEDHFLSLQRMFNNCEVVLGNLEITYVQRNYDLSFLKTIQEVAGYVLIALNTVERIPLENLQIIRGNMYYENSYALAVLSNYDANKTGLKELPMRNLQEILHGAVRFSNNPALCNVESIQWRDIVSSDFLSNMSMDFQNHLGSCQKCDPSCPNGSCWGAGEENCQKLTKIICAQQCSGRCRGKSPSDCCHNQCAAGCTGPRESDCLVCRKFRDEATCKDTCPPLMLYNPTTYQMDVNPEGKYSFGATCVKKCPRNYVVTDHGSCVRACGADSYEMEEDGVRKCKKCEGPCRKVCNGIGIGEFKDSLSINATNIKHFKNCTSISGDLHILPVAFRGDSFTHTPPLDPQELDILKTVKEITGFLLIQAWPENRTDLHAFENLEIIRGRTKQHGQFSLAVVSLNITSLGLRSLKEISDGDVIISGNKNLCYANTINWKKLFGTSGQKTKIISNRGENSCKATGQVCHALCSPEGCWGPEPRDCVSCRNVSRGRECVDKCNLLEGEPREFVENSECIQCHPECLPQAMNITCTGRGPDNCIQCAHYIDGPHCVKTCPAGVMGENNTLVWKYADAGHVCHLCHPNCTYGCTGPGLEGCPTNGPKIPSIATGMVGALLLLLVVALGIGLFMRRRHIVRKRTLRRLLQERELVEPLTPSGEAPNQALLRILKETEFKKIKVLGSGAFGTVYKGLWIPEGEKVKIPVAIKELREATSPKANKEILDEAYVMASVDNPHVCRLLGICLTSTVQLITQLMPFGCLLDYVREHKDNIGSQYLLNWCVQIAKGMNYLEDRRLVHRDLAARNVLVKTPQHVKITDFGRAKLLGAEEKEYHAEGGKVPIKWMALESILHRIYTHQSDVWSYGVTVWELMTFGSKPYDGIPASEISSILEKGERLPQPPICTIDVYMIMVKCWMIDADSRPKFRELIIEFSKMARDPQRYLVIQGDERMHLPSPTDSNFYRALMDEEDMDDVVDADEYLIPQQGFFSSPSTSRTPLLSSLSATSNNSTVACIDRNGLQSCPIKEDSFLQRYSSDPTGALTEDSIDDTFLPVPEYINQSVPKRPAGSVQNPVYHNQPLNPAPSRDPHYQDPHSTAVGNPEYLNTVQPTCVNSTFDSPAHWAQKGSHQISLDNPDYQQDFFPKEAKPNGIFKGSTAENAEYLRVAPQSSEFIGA
# T3 sequence (Q96GD4 whole entry): as the sequence (Q96GD4 whole entry) above
# Chain of Epidermal growth factor receptor (Homo sapiens, UniProt P00533) (P00533 whole entry): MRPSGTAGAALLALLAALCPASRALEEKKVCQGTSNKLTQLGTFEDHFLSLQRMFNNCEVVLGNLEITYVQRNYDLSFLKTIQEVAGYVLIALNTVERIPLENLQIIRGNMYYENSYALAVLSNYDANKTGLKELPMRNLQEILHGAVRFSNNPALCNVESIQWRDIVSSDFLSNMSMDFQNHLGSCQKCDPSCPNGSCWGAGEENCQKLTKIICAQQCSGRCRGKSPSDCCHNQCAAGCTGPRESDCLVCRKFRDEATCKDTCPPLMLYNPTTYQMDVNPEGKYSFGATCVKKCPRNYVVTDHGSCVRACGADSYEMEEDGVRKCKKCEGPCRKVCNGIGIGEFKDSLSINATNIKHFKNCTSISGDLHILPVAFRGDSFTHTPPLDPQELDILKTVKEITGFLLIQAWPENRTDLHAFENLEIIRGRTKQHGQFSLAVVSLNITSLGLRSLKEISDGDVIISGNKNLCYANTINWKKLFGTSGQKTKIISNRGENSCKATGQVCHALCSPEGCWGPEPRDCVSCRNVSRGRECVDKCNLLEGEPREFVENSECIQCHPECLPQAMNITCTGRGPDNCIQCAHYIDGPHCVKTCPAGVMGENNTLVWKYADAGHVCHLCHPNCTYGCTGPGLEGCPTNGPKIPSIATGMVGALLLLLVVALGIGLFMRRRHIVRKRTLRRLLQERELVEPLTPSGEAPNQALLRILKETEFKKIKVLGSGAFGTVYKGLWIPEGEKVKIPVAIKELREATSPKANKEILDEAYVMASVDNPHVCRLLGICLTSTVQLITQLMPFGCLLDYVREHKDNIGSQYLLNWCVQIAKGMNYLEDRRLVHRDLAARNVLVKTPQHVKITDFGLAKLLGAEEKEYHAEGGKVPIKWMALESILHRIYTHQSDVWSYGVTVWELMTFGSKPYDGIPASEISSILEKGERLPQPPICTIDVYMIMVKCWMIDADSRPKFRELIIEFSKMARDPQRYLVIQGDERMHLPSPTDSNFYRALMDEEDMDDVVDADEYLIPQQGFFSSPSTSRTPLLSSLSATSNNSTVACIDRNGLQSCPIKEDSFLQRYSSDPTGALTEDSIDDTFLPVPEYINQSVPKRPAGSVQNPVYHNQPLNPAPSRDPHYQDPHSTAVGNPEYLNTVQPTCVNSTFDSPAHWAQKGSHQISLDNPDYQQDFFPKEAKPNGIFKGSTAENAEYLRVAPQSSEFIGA
IC50 [1],IC50 [5],IC50 [7],IC50 [10],SMILES,Kd [2],Kd [3],IC50 [4],IC50 [6],Kd [8],IC50 [9]
59 nM,,,,COc1cccc2c1C(=O)c1c(O)c3c(c(O)c1C2=O)C[C@@](O)(C(=O)CO)C[C@@H]3O[C@H]1C[C@H](N)[C@H](O)[C@H](C)O1 [DOXORUBICIN],,,,,,
,,,,COc1cc2c(Nc3ccc(NC(=O)c4ccccc4)cc3)ncnc2cc1OCCCN1CCOCC1,220 nM,880 nM,,,,
20400 nM,2770 nM,3800 nM,,Brc1cccc(Nc2ncnc3[nH]ccc23)c1,,,3 nM,3 nM,,
,800 nM,50 nM,14700 nM,O=C(Nc1ccccc1)c1ccc(Nc2ncnc3[nH]ccc23)cc1,,,,,,

SMILES,IC50 [1],IC50 [5],IC50 [7],IC50 [10],Kd [2],Kd [3],IC50 [4],IC50 [6],Kd [8],IC50 [9]
Cn1nccc1-c1cc2c(Nc3ccc(OCc4ccccc4)cc3)ncnc2[nH]1,2920 nM,4000 nM,1100 nM,,,210 nM,70 nM,69 nM,> 30000 nM,> 50000 nM

# Reference: ChEMBL document CHEMBL5625257, “Design, synthesis, and evaluation of dual EGFR/AURKB inhibitors as anticancer agents for non-small cell lung cancer” (Bioorg Med Chem Lett, 2024)
